{"source": "ChEMBL document CHEMBL1130582", "about": "“Substrate specificity of thermostable farnesyl diphosphate synthase with alkyl group homologs of isopentenyl diphosphate” (1998)", "key": {"[1]": {"system": "Geobacillus stearothermophilus", "assay": "Relative yield of the product (3c) derived from the compound with DMAPP in the enzymatic reaction catalyzed by FPP synthase from Bacillus stearothermophilus", "assay_type": "functional"}, "[2]": {"species": "Sus scrofa", "assay": "Relative yield of the product (3c) derived from the compound with DMAPP in the enzymatic reaction catalyzed by FPP synthase from porcine liver", "assay_type": "functional"}, "[3]": {"system": "Aves", "assay": "Relative yield of the product (3c) derived from the compound with DMAPP in the enzymatic reaction catalyzed by FPP synthase from avian liver", "assay_type": "functional"}, "[4]": {"species": "Sus scrofa", "assay": "Relative yield of the product (4c) derived from the compound with GPP in the enzymatic reaction catalyzed by FPP synthase from porcine liver", "assay_type": "functional"}, "[5]": {"system": "Aves", "assay": "Relative yield of the product (4c) derived from the compound with GPP in the enzymatic reaction catalyzed by FPP synthase from avian liver; ND = Not detected", "assay_type": "functional"}, "[6]": {"system": "Geobacillus stearothermophilus", "assay": "Relative yield of the product (4c) derived from the compound with GPP in the enzymatic reaction catalyzed by FPP synthase from Bacillus stearothermophilus", "assay_type": "functional"}, "[7]": {"biological_target": "T1, Farnesyl diphosphate synthase (Geobacillus stearothermophilus) (UniProt Q08291)", "T1 sequence (whole entry)": "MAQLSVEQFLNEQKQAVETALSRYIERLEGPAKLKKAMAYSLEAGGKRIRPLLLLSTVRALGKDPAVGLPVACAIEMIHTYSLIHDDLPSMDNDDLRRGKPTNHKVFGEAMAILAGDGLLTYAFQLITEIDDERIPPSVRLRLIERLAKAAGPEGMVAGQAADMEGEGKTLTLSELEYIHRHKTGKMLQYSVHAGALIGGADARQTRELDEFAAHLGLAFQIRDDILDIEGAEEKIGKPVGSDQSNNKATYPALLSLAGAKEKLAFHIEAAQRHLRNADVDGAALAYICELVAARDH", "assay": "Relative yield of the product (4b) derived from the compound with DMAPP in the enzymatic reaction catalyzed by FPP synthase from Bacillus stearothermophilus", "assay_type": "functional"}, "[8]": {"system": "Farnesyl diphosphate synthase (Sus scrofa)", "assay": "Relative yield of the product (4b') derived from the compound with GPP in the enzymatic reaction catalyzed by FPP synthase from porcine liver"}, "[9]": {"system": "Farnesyl diphosphate synthase (Aves)", "assay": "Relative yield of the product (4b') derived from the compound with GPP in the enzymatic reaction catalyzed by FPP synthase from avian liver"}, "[10]": {"system": "Farnesyl diphosphate synthase (Aves)", "assay": "Relative yield of the product (4b) derived from the compound with DMAPP in the enzymatic reaction catalyzed by FPP synthase from avian liver"}, "[11]": {"biological_target": "T1, Farnesyl diphosphate synthase (Geobacillus stearothermophilus)", "assay": "(§1) Relative yield of the product (3b) derived from the compound with DMAPP in the enzymatic reaction catalyzed by FPP synthase from Bacillus stearothermophilus", "assay_type": "functional"}, "[12]": {"biological_target": "T1, Farnesyl diphosphate synthase (Geobacillus stearothermophilus)", "assay": "Relative yield of the product (4b') derived from the compound with GPP in the enzymatic reaction catalyzed by FPP synthase from Bacillus stearothermophilus", "assay_type": "functional"}, "[13]": {"system": "Farnesyl diphosphate synthase (Aves)", "assay": "Relative yield of the product (3b) derived from the compound with DMAPP in the enzymatic reaction catalyzed by FPP synthase from avian liver"}, "[14]": {"system": "Farnesyl diphosphate synthase (Sus scrofa)", "assay": "Relative yield of the product (4b) derived from the compound with DMAPP in the enzymatic reaction catalyzed by FPP synthase from porcine liver"}, "[15]": {"system": "Farnesyl diphosphate synthase (Sus scrofa)", "assay": "Relative yield of the product (3b) derived from the compound with DMAPP in the enzymatic reaction catalyzed by FPP synthase from porcine liver; ND = Not detected"}, "[16]": {"system": "Aves", "assay": "Relative yield of the product (3b) derived from the compound with DMAPP in the enzymatic reaction catalyzed by FPP synthase from avian liver; ND = Not detected", "assay_type": "functional"}, "[17]": {"species": "Sus scrofa", "assay": "Relative yield of the product (3b) derived from the compound with DMAPP in the enzymatic reaction catalyzed by FPP synthase from porcine liver; ND = Not detected", "assay_type": "functional, organism-based"}, "[18]": {"system": "Aves", "assay": "Relative yield of the product (4d) derived from the compound with DMAPP in the enzymatic reaction catalyzed by FPP synthase from avian liver; ND = Not detected", "assay_type": "functional"}, "[19]": {"system": "Geobacillus stearothermophilus", "assay": "as §1", "assay_type": "functional"}, "[20]": {"system": "Geobacillus stearothermophilus", "assay": "Relative yield of the product (4d) derived from the compound with GPP in the enzymatic reaction catalyzed by FPP synthase from B. stearothermophilus; ND = Not detected", "assay_type": "functional"}, "[21]": {"species": "Sus scrofa", "assay": "Relative yield of the product (4d) derived from the compound with DMAPP in the enzymatic reaction catalyzed by FPP synthase from porcine liver; ND = Not detected", "assay_type": "functional"}}}
{"compound": "C=C(CCC)CCOP(=O)(O)OP(=O)(O)O", "values": [{"measurement": "Production", "setting": "[1]", "value": 29, "unit": "%"}, {"measurement": "Production", "setting": "[2]", "value": 1.4, "unit": "%"}, {"measurement": "Production", "setting": "[3]", "value": 1, "unit": "%"}, {"measurement": "Production", "setting": "[4]", "value": 1.8, "unit": "%"}, {"measurement": "Production", "setting": "[5]", "value": "Not detected"}, {"measurement": "Production", "setting": "[6]", "value": 10, "unit": "%"}]}
{"compound": "C=C(CC)CCOP(=O)(O)OP(=O)(O)O", "values": [{"measurement": "Production", "setting": "[7]", "value": 40, "unit": "%"}, {"measurement": "Production", "setting": "[8]", "value": 27, "unit": "%"}, {"measurement": "Production", "setting": "[9]", "value": 25, "unit": "%"}, {"measurement": "Production", "setting": "[10]", "value": 6.7, "unit": "%"}, {"measurement": "Production", "setting": "[11]", "value": 68, "unit": "%"}, {"measurement": "Production", "setting": "[12]", "value": 48, "unit": "%"}, {"measurement": "Production", "setting": "[13]", "value": 1, "unit": "%"}, {"measurement": "Production", "setting": "[14]", "value": 10, "unit": "%"}, {"measurement": "Production", "setting": "[15]", "value": "Not detected"}]}
{"compound": "C=C(CCCC)CCOP(=O)(O)OP(=O)(O)O", "values": [{"measurement": "Production", "setting": "[16]", "value": "Not detected"}, {"measurement": "Production", "setting": "[17]", "value": "Not detected"}, {"measurement": "Production", "setting": "[18]", "value": "Not detected"}, {"measurement": "Production", "setting": "[19]", "value": 4, "unit": "%"}, {"measurement": "Production", "setting": "[20]", "value": "Not detected"}, {"measurement": "Production", "setting": "[21]", "value": "Not detected"}]}
